In data set [1] the test system is human-derived tracheal/bronchial epithelial cells (EpiAirway Tissue Model). The experiment in a line: FITC-Dextran permeation assay across epithelial cell monolayer. The format is cell-based. To be noted: for Mean % FD3 Permeation: FITC-dextran 3000 (Table 4); for permeation of FD3 relative to negative controls: text summary of Table 4. The method, boiled down:
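Formulations applied apically to EpiAirway tissue inserts, shaken ~100 rpm 1.5 hours at 37 °C, with FITC-dextran (3-500 kDa) added apically. Basolateral fluorescence read at 470 nm in triplicate; result expressed as percent of FITC-dextran crossing apical to basolateral.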

Data set [2] has the same test system. As to the kind of experiment: Transepithelial electrical resistance (TER) of an epithelial cell monolayer. The format is cell-based. The settings on record: for activity at 1000 µM / activity at 500 µM: Homo sapiens, Epithelial cell, 1 h, read-out: Mean % of Original TER Value; for activity at 1000 µM: lower value = greater TER reduction (Table 4); for TER reduction within 15 minutes: 15 minute incubation; for activity at 500 µM: lipid 500 μM (Table 4). The method, boiled down: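 EpiAirway human tracheal/bronchial epithelial tissue inserts, fed daily during recovery; resistance read with EVOM voltohmmeter in Endohm-12 chamber in MatTek medium, blank-insert background (about 5-20 ohms) measured. TER normalised to tissue surface area, expressed as Ohms*cm2 and percent of original TER; lower TER taken as enhanced permeation.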

Data set [3] has the same test system. As to the kind of experiment: in vitro. The method, boiled down: (§1)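 EpiAirway cultures treated 1 h with each lipid; PBS as negative control. LDH released apically and basolaterally measured colorimetrically at 490 nm after 30 min substrate incubation at room temperature. Cytotoxicity expressed as percent of 1% Triton X-100 lysis control, set to 100%.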
The next data set can be described thus: in vitro. Summed up:
as §1

The mark [4] stands for this setting: in the presence of FITC-Dextran FD3 (Table 6).
Where [5] appears, read: in the presence of FITC-Dextran FD10 (Table 6).
The mark [6] stands for this setting: in the presence of FITC-Dextran FD40 (Table 6).
[7] abbreviates: in the presence of FITC-Dextran FD70 (Table 6).
Setting [8] is: in the presence of FITC-Dextran FD500 (Table 6).
Where [9] appears, read: % Cytotoxicity, lipid 1000 μM in Buffer I, apical LDH release.
The mark [10] stands for this setting: % Cytotoxicity, lipid 1000 μM in Buffer II, apical LDH release.

Molecules are shown by their SMILES. Where “and” joins values, the source holds several entries; their conditions need not be identical. Identical values can stand only once.

On to `CCCCCCCCCCCCCCCCOC[C@@H](COP(=O)([O-])OCC[N+](C)(C)C)OC(C)=O` [C16 Enantiomeric PAF, 3-O-Hexadecyl-2-Acetoyl-sn-Glycero-1-Phosphocholine], for which the “% FITC-Dextran Permeation FD10” value in data set [1] (lipid 1000 μM) was determined as 4%. Also, the “% FITC-Dextran Permeation FD40” value in data set [1] (lipid 1000 μM) is 2%. Further, in data set [1] (lipid 1000 μM), the “% FITC-Dextran Permeation FD70” value was found to be 1%. Besides, the “% FITC-Dextran Permeation FD500” value in data set [1] (lipid 1000 μM) is 0%. Besides, the “% FITC-Dextran Permeation FD3” value in data set [1] (lipid 1000 μM (Table 5)) was 20%. The figures for the “% FD3 Permeation” value in data set [1] (lipid 1000 μM in Buffer I) and in data set [1] (lipid 1000 μM in Buffer II) were 46% and 23%, respectively. Further, the “Mean % FD3 Permeation” value in data set [1] (lipid 1000 μM) amounted to 11%. Further, the “permeation of FD3 relative to negative controls” value in data set [1] is reported as “enhanced the permeation of FD3 above that of the negative controls”. Further, the activity at 1000 µM in data set [2] (lipid 1000 μM) worked out at 1%. For the same molecule, the “% Original TER” value is 2% in data set [2] (lipid 1000 μM in Buffer I) and 9% in data set [2] (lipid 1000 μM in Buffer II). For the same molecule, the “TER reduction within 15 minutes” value in data set [2] (lipid 1000 μM) is listed as “levels equivalent to that of the Triton-X100™ control”. Also, the “% Relative Cytotoxic Effect (LDH)” value in data set [3] (setting [4]) was determined as 34%; in data set [3] (setting [5]), 32%; in data set [3] (setting [6]) it was 36%; in data set [3] (setting [7]) it was 31%; in data set [3] (setting [8]), 33%. In addition, the “Mean % Relative Cytotoxic Effect (LDH)” value in data set [3] (lipid 1000 μM (Table 4)) is listed as 35%. Moreover, the cytotoxicity at 1 h, 1000 μM came out at 34% in “in vitro” (setting [9]) and 14% in the data set “in vitro” (setting [10]).
In the case of `CCCCCCCCCCCCCCCCOC[C@H](COP(=O)([O-])OCC[N+](C)(C)C)OC(C)=O` [C16-02:0 PC(C16 PAF), 1-O-Hexadecyl-2-Acetoyl-sn-Glycero-3-Phosphocholine], the “Mean % FD3 Permeation” value in data set [1] (lipid 500 μM) was determined as 5%; in data set [1] (lipid 1000 μM), 14%. Besides, the “% FITC-Dextran Permeation FD10” value in data set [1] (lipid 1000 μM) turned out to be 6%. In data set [1] (lipid 1000 μM), the “% FITC-Dextran Permeation FD40” value is 2%. For the same molecule, in data set [1] (lipid 1000 μM), the “% FITC-Dextran Permeation FD70” value is listed as 2%. The “% FITC-Dextran Permeation FD500” value in data set [1] (lipid 1000 μM) is given as 0%. The “% FITC-Dextran Permeation FD3” value in data set [1] (lipid 1000 μM (Table 5)) amounted to 22%. In addition, the “% FD3 Permeation” value was 41% in data set [1] (lipid 1000 μM in Buffer I) and 27% in data set [1] (lipid 1000 μM in Buffer II). Moreover, the “permeation of FD3 relative to negative controls” value in data set [1] is listed as “enhanced the permeation of FD3 above that of the negative controls”. The activity at 500 µM in data set [2] was determined as 27%. In data set [2] (lipid 1000 μM), the activity at 1000 µM was determined as 2%. Moreover, the figures for the “% Original TER” value in data set [2] (lipid 1000 μM in Buffer I) and in data set [2] (lipid 1000 μM in Buffer II) were 1% and 8%, respectively. In data set [2] (lipid 1000 μM), the “TER reduction within 15 minutes” value is “levels equivalent to that of the Triton-X100™ control”. Moreover, the “% Relative Cytotoxic Effect (LDH)” value in data set [3] (setting [4]) amounted to 32%; in data set [3] (setting [5]), 35%; in data set [3] (setting [6]), 31%; in data set [3] (setting [7]), 35%; in data set [3] (setting [8]) it was 26%. Further, the “Mean % Relative Cytotoxic Effect (LDH)” value in data set [3] (lipid 500 μM (Table 4)) amounted to 20%; in data set [3] (lipid 1000 μM (Table 4)) it was 32%. Moreover, the cytotoxicity at 1 h, 1000 μM worked out at 43% in “in vitro” (setting [9]) and 13% in the data set “in vitro” (setting [10]). This molecule showed a cytotoxicity at 1 h in the data set “in vitro” (% Cytotoxicity, lipid / PYY 10 mg/mL) of 23%.
For `C=CCC(=O)O[C@H](COCCCCCCCCCCCCCCCC)COP(=O)([O-])OCC[N+](C)(C)C` [C16-04:1 PC], in data set [1] (lipid 500 μM), the “Mean % FD3 Permeation” value was 6%. In data set [1] (lipid 1000 μM), the “% FITC-Dextran Permeation FD10” value is 8%, the “% FITC-Dextran Permeation FD40” value amounted to 3%, the “% FITC-Dextran Permeation FD70” value was determined as 0% and the “% FITC-Dextran Permeation FD500” value is 0%. The “Mean % FD3 Permeation” value in data set [1] (lipid 1000 μM) came out at 12%. Also, the “% FITC-Dextran Permeation FD3” value in data set [1] (lipid 1000 μM (Table 5)) is 25%. Also, in data set [1] (lipid 1000 μM in Buffer I), the “% FD3 Permeation” value stood at 44%. Moreover, in data set [1] (lipid 1000 μM in Buffer II), the “% FD3 Permeation” value is recorded as 8%. Moreover, the “permeation of FD3 relative to negative controls” value in data set [1] is reported as “enhanced the permeation of FD3 above that of the negative controls”. Besides, the activity at 500 µM in data set [2] amounted to 11%. Also, the activity at 1000 µM in data set [2] (lipid 1000 μM) is -2%. In addition, the “% Original TER” value in data set [2] (lipid 1000 μM in Buffer I) stood at 2%. In addition, the “% Original TER” value in data set [2] (lipid 1000 μM in Buffer II) is recorded as 23%. The “Mean % Relative Cytotoxic Effect (LDH)” value in data set [3] (human, 1 h, 500 μM) is on record as 18%. The “Mean % Relative Cytotoxic Effect (LDH)” value in data set [3] (human, 1 h, 1000 μM) was determined as 27%.
For the molecule `CCCCCCCCCCCCCCCCCCOC[C@H](COP(=O)([O-])OCC[N+](C)(C)C)OC(C)=O` [C18-02:0 PC(C18 PAF), 1-O-Octadecyl-2-Acetoyl-sn-Glycero-3-Phosphocholine], the “Mean % FD3 Permeation” value in data set [1] (lipid 500 μM) is given as 2%. Moreover, in data set [1] (lipid 1000 μM), the “% FITC-Dextran Permeation FD10” value is 8%, the “% FITC-Dextran Permeation FD40” value turned out to be 3%, the “% FITC-Dextran Permeation FD70” value worked out at 2% and the “% FITC-Dextran Permeation FD500” value turned out to be 0%. Also, the “Mean % FD3 Permeation” value in data set [1] (lipid 1000 μM) amounted to 8%. Moreover, the “% FITC-Dextran Permeation FD3” value in data set [1] (lipid 1000 μM (Table 5)) worked out at 24%. Also, in data set [1] (lipid 1000 μM in Buffer I), the “% FD3 Permeation” value was determined as 42%. Also, the “% FD3 Permeation” value in data set [1] (lipid 1000 μM in Buffer II) came out at 27%. In addition, the “permeation of FD3 relative to negative controls” value in data set [1] was “enhanced the permeation of FD3 above that of the negative controls”. The activity at 500 µM in data set [2] was found to be 44%. In data set [2] (lipid 1000 μM), the activity at 1000 µM worked out at 1% and the “TER reduction within 15 minutes” value is on record as “levels equivalent to that of the Triton-X100™ control”. In addition, the “% Original TER” value in data set [2] (lipid 1000 μM in Buffer I) was 1%. The “% Original TER” value in data set [2] (lipid 1000 μM in Buffer II) was 7%. In addition, in data set [3] (human, 1 h, 500 μM), the “Mean % Relative Cytotoxic Effect (LDH)” value was 8%. Also, in data set [3] (human, 1 h, 1000 μM), the “% Cytotoxicity” value is 17% and the “Mean % Relative Cytotoxic Effect (LDH)” value is 20%. The cytotoxicity at 1 h, 1000 μM in the data set “in vitro” (human, % Cytotoxicity) turned out to be 33%.
For `CCCCCCCCCCCCCCCC(=O)OC[C@H](COP(=O)([O-])OCC[N+](C)(C)C)OC(=O)CCCC(=O)O` [PGPC, 1-Palmitoyl-2-Glutaroyl-sn-Glycero-3-Phosphocholine], the “% FITC-Dextran Permeation FD3” value in data set [1] (lipid 500 μM (Table 5)) was determined as 10%. The “Mean TER Reduction 1 hr. Post-treatment” value was 21% in data set [2] (lipid 62.5 μM); 28% in data set [2] (lipid 125 μM); 48% in data set [2] (lipid 250 μM); 80% in data set [2] (lipid 500 μM); 92% in data set [2] (lipid 1000 μM, percent decrease in TER from time zero). Moreover, the LDH levels result in data set [3] (human, 1 h) was “below 30%”. Moreover, the “Cytotoxic Effect (LDH) 1 hr. Post-treatments” value in data set [3] (human, 1 h, 62.5 μM) is on record as 2%; in data set [3] (human, 1 h, 125 μM), 2%; in data set [3] (human, 1 h, 250 μM), 4%; in data set [3] (human, 1 h, 500 μM), 13%; in data set [3] (human, 1 h, 1000 μM), 21%. For the same molecule, the cytotoxicity at 1 h, 500 μM in the data set “in vitro” (human, % Cytotoxicity) is 2%.
Regarding `CC(C)C[C@H](NC(=O)[C@H](C)NC(=O)[C@H](CCCCN)NC(=O)[C@H](CC(C)C)NC(=O)[C@H](C)NC(=O)[C@H](CC(C)C)NC(=O)[C@H](CCCCN)NC(=O)[C@H](CC(C)C)NC(=O)[C@H](C)NC(=O)[C@H](CC(C)C)NC(=O)[C@@H](N)CCCCN)C(=O)N[C@@H](CCCCN)C(=O)N[C@@H](C)C(=O)N[C@@H](C)C(=O)N[C@@H](CC(C)C)C(=O)N[C@@H](CCCCN)C(=O)N[C@@H](CC(C)C)C(=O)N[C@@H](C)C(N)=O` [PN159, reference compound], in data set [1] (PN159 25 μM), the “% FITC-Dextran Permeation FD10” value is given as 4% and the “% FITC-Dextran Permeation FD40” value is on record as 2%. In addition, the “% FITC-Dextran Permeation FD3” value in data set [1] (PN159 25 μM (Table 5)) is on record as 7%. The “% Original TER” value in data set [2] (PN159 25 μM / PYY 13.67 mg/mL (High)) is 10%. Besides, the “% of the original TER value” in data set [2] (controls of the further test of lipids at 250 μM to 1000 μM (b219-b220)) is listed as 8%. In addition, the “Mean TER Reduction 1 hr. Post-treatment” value in data set [2] (positive control PN159 25 μM) was 85% and 87%. Moreover, the cytotoxicity at 1 hour, 25 μM in the data set “in vitro” came out at 33%.
